Test results reported in the NIST ThermoML archive (doi:10.1016/j.jct.2014.07.010).

Experiment: osmotic coefficient (dimensionless); mn = molality of the nth substance listed, in mol/kg
Conditions: 298.15 K, Liquid, isopiestic method

O=S(=O)([O-])[O-].[K+].[K+] [potassium sulfate] + O
Conditions | osmotic coefficient
m1 = 0.4526 | 0.693
m1 = 0.4667 | 0.692
m1 = 0.4747 | 0.691
m1 = 0.5108 | 0.686
m1 = 0.5495 | 0.682
m1 = 0.5708 | 0.68
m1 = 0.6064 | 0.677
m1 = 0.6321 | 0.675
m1 = 0.6366 | 0.673
m1 = 0.6529 | 0.673
